Results on 6 molecules are retold here after article PMC11521937, “Expression and characterization of pantothenate energy‐coupling factor transporters as an anti‐infective drug target” (Protein Science : A Publication of the Protein Society, 2024).

The subject of one data set is A549 cells. Description: In vitro MTT cytotoxicity assay, A549. The format is cell-based, human. As to conditions: 48 h, 100 µM. The procedure: (§1) In vitro cytotoxicity evaluation […]
(§2) with minor modifications, which will be detailed below.
(§3) To obtain information regarding the toxicity of our compounds, their impact on the viability of human cells was investigated. HepG2 and A549 cells (2 × 10^4 cells per well) were seeded in 96-well, flat-bottomed culture plates in 100 µL culture medium (DMEM containing 10% fetal calve serum, 1% penicillin-streptomycin). Twenty-four hours after seeding the cells, medium was removed and replaced by medium containing test compounds in a final DMSO concentration of 1%. Compounds were tested in duplicates at a single concentration in 1% DMSO/medium. Epirubicin and doxorubicin were used as positive controls in serial dilutions starting from 10 µM, and rifampicin was used as a negative control (at 100 µM). The living cell mass was determined 48 h after treatment with compounds by adding 0.1 volumes of 3-(4,5-dimethylthiazol-2-yl)-2,5-diphenyltetrazolium bromide (MTT) solution (5 mg/mL sterile PBS) (Sigma, St. Louis, MO) to the wells. After incubating the cells for 30 min at 37 °C (atmosphere containing 5% CO2), medium was removed and MTT crystals were dissolved in 75 µL of a solution containing 10% SDS and 0.5% acetic acid in DMSO. The optical density (OD) of the samples was determined photometrically at 570 nm in a PHERAstar Omega plate reader (BMG labtech, Ortenberg, Germany). To obtain percent viability for each sample, their ODs were related to those of DMSO controls. At least two independent measurements were performed for each compound. The calculation of IC50 was performed using the nonlinear regression function of GraphPad Prism 10 (GraphPad Software, San Diego, CA, USA). […]
(Tetrazolium dyes change colour on reduction, which living cells bring about.)

A short description of data set [1]: In vitro MTT cytotoxicity assay, A549. It counts as cell-based, human. As to conditions: human, read-out: Percent (%) cell viability at 100 μM, A549 cells. The procedure:
as §1, §2, §3

The target in another data set is ECF‐FolT2 (Lactobacillus delbrueckii subsp. bulgaricus, UniProt Q1G929+Q1GBI8+Q1GBI9+Q1GBJ0). Description: SPR binding to immobilized ECF‐FolT2. Particulars: for Kd: n = 2. The procedure:
The ECF‐PanT, ECF‐module, and ECF‐FolT2, each bearing a histidine tag, were immobilized on a high‐affinity poly‐nitrilotriacetic acid (poly‐NTA) sensor chip, which was initially activated using NiCl2.
Additionally, the protein was maintained in the buffer containing 5% (v/v) DMSO. For a more in‐depth description of the procedures, please refer to Appendix S1.
Surface plasmon resonance (SPR)
The SPR binding studies were performed using a Reichert 4SPR surface plasmon resonance spectrometer (Reichert Technologies, Buffalo, NY, USA), and medium–density NTA derivatized polycarboxylate hydrogel NiHC200M sensor chips (XanTec Bioanalytics, Düsseldorf, Germany). The experimental procedure involved two rounds of nickel activation and one immobilization step at a […]
standard protocol as provided by Xantec bioanalytics with a slight modification based on the recombinant proteins. The flow-cell 4 was left blank to serve as a reference.
The immobilization buffer employed for the immobilization process consisted of 10 mM HEPES with a pH of 7.5, 50 mM NaCl, 50 µM EDTA, and 0.05% DDM without DMSO. Following the immobilization step, for the binding study of the compounds, the running buffer was exchanged for the mentioned buffer with 5% v/v DMSO. This was done to ensure consistency in the percentage of DMSO present in the solutions containing the respective testing inhibitors, as these inhibitors were soluble in the DMSO solvent. By maintaining the same DMSO concentration, we aimed to minimize any potential solvent-related effects on the assay results. All running buffers were filtered and degassed before use.
The system was initially primed with 5 mM NiCl2 with an association and dissociation time of 2 min for each to activate the NTA sensor chip. Then, the recombinant proteins with a concentration of 200 nM were injected at a flow rate of 10 µL/min for 8 min. Finally, the baseline check with the running […]
First, the calibration curve for correction of the DMSO effect was prepared; the concentrations were […]
concentration of DMSO in all the samples was set to 5% v/v DMSO. The samples (200 µL) were loaded on a 96-well plate and were injected at a flow rate of 50 μL/min. Single-cycle kinetics were applied for KD determination. The association time was set to 60 s, and the dissociation phase was recorded for 120 s. For surface regeneration, 0.35 M EDTA (pH 8.5) and 0.1 M NaOH were used. Data processing and […]
were calculated by sequential subtractions of the corresponding curves obtained from the reference flow cell and the running buffer (blank). SPR responses were expressed in the resonance unit (RU). The KD values were calculated by global fitting of the kinetic curves as well as fitting of the steady state binding responses to a 1:1 Langmuir interaction model.
The SPR experiments were conducted at least two times, representing independent replicates. The […]
interactions, are presented in Figure S12 for ECF-PanT, Figure S13 for ECF-FolT2, and Figure S14 for […]

A further data set relates to S. pneumoniae DSM‐20566. Description: Galleria mellonella infection model with S. pneumoniae. It counts as in vivo. Particulars: S. pneumoniae OD600 1.5, after 3 days. The method, then:
Next, we examined the antibacterial effect of the ECF inhibitors under in vivo conditions by using G. mellonella larvae. This model was adopted based on the work of Alhayek et al. ([2022]) and serves to assess the efficacy of ECF inhibitors against S. pneumoniae induced infection. Larvae were injected with the overnight culture of S. pneumoniae DSM‐20566, incubated for 3 days at 37°C and 5% CO2 without shaking, and survival rates were monitored daily for 3 days (Figure 4).
G. mellonella larvae were used as an in vivo infection model to test selected ECF inhibitors, following the methodology established by Alhayek et al. ([2022]). S. pneumoniae DSM‐20566 was cultured in Todd–Hewitt medium with 0.1% choline at 37°C with 5% CO2 until an OD600 of 1.5 or higher was reached. Larvae were infected by injecting 10 μL of the culture into the left proleg and incubated at 37°C, 5% CO2 for 72–96 h. Survival was monitored daily. Control groups received either PBS or no injection. […]. The larvae used in this study were purchased from VALOMOLIA Company (Strasbourg, France).

For another data set, the system named is Lactobacillus casei. Description: L. casei whole‐cell uptake assay. It counts as cell-based. Particulars: Lacticaseibacillus casei.
The next data set deals with HepG2 cells. Description: In vitro MTT cytotoxicity assay, HepG2. The format is cell-based, human. Particulars: 48 h. The method, then: as §1, §2, §3
Where [2] appears, read: Equilibrium, K D, SPR, L. delbrueckii ECF‐FolT2, steady state fit.
The mark [3] stands for this setting: Kinetic, K D, SPR, L. delbrueckii ECF‐FolT2, global fit of kinetic curves.
Where [4] appears, read: SPR, L. delbrueckii ECF‐FolT2, global fit of kinetic curves, read-out: Kinetic, K D.
The mark [5] stands for this setting: SPR, L. delbrueckii ECF‐FolT2, steady state fit, read-out: Equilibrium, K D.
The mark [6] stands for this setting: pH 7.5, SPR, L. delbrueckii ECF‐FolT2, n = 2, read-out: k a.
Where [7] appears, read: pH 7.5, SPR, L. delbrueckii ECF‐FolT2, n = 2, read-out: k d.

Where two headings read alike, the source gives them in different places.

Chain of ECF‐FolT2 (Q1GBJ0 whole entry): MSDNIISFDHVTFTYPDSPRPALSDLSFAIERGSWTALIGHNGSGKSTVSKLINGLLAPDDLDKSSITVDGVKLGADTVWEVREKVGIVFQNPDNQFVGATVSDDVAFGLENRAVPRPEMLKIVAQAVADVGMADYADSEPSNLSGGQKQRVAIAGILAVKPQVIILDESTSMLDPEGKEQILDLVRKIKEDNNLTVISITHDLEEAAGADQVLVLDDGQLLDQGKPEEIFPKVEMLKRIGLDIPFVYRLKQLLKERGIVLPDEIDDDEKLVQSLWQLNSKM
Chain of ECF‐FolT2 (Q1GBI9 whole entry): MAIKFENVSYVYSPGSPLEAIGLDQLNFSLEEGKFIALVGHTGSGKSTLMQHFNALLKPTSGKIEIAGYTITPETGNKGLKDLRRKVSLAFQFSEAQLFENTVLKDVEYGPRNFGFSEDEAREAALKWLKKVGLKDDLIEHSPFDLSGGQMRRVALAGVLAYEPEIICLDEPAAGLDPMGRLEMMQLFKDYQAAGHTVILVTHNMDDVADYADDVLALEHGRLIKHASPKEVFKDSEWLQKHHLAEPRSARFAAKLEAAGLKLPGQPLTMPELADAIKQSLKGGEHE
Chain of ECF‐FolT2 (Q1GBI8 entry or part of it): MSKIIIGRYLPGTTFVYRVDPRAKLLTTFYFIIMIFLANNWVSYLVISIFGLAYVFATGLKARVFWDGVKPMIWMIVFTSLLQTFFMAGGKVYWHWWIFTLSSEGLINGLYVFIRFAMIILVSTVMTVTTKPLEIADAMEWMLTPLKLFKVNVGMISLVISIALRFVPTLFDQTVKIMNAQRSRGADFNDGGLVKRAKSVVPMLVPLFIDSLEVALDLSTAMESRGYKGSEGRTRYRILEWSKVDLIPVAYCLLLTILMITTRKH
Chain of ECF‐FolT2 (Q1G929 entry or part of it): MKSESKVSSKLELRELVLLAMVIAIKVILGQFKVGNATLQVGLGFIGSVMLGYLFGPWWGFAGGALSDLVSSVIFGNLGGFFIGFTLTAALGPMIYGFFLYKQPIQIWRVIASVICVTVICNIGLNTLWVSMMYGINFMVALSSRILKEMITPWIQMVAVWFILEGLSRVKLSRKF

Usually viability stands for a read-out of living cells in per cent, often relative to untreated cells. As to `O=C(O)c1cc(OCc2cccc3ccccc23)ccc1O` [Compound 1], the “Percent (%) cell viability at 100 μM, A549 cells” value in the data set with A549 cells amounted to 111 ± 6%. Moreover, the viability at 48 h, 100 µM in data set [1] was greater than 100%. Also, the Kd at ECF‐FolT2 (setting [2]) is 300 ± 20 µM; at ECF‐FolT2 (setting [3]) it was 294 ± 6 µM.
`O=C(O)c1cc(OCc2ccc(Br)c3ccccc23)ccc1O` [Compound 2]: the larval survival entry with S. pneumoniae DSM‐20566 (compound at 10 μM) and in the data set with S. pneumoniae DSM‐20566 (compound at 50 μM) was “up to 70%” in each case. Also, in the data set with A549 cells, the “Percent (%) cell viability at 100 μM, A549 cells” value is recorded as 124 ± 15%. The results for the Kd at ECF‐FolT2 (setting [2]) and at ECF‐FolT2 (setting [3]) were 190 ± 20 µM and 185 ± 3 µM, respectively.
Consider `CC(C)(C)OC(=O)Nc1ccc(OCc2cccc3ccccc23)cc1C(=O)O` [Compound 3], for which the figures for the larval survival in the data set on S. pneumoniae DSM‐20566 (compound at 10 μM) and in the data set on S. pneumoniae DSM‐20566 (compound at 50 μM) were 60% and 50%, respectively. Moreover, in data set [1], the viability at 48 h, 100 µM was 86 ± 11%. Also, the figures for the Kd at ECF‐FolT2 (setting [2]) and on ECF‐FolT2 (setting [3]) were 128 ± 9 µM and 132 ± 3 µM, respectively. Also, the kon on ECF‐FolT2 (pH 7.5, read-out: k a) came to 570 ± 10 M⁻¹ s⁻¹. Also, the koff at ECF‐FolT2 (pH 7.5, read-out: k d) was 0.0755 ± 0.0008 s⁻¹.
One may read the IC50 as the point on the concentration scale where inhibition reaches its midpoint. As to `O=C(O)c1cccc(NCc2ccc(-c3ccc(Cl)cc3)o2)c1` [Compound 4], the larval survival in the data set on S. pneumoniae DSM‐20566 (compound at 10 μM) came to 40%; in the data set on S. pneumoniae DSM‐20566 (compound at 50 μM) it was 60%. The viability at 48 h, 100 µM in data set [1] (A549 cells) was 80 ± 10%. Also, in the data set on Lactobacillus casei, inhibition was half-maximal at 321 ± 200 µM (IC50). Further, the Kd was 353 ± 5 µM on ECF‐FolT2 (setting [4]) and 340 ± 10 µM at ECF‐FolT2 (setting [5]). The kon on ECF‐FolT2 (setting [6]) turned out to be 325 ± 5 M⁻¹ s⁻¹. Also, the koff on ECF‐FolT2 (setting [7]) was 0.115 ± 0.001 s⁻¹.
Take `O=C(O)c1cccc(NCc2ccc(-c3cccc(Cl)c3)o2)c1` [Compound 5]: the “Percent (%) cell viability at 100 μM, HepG2 cells” value in the data set with HepG2 cells was “non‐toxic”. In data set [1] (A549 cells), the viability at 48 h, 100 µM came to 102 ± 17%. The molecule also displayed an IC50 in the data set on Lactobacillus casei of 247 ± 78 µM. Further, the Kd on ECF‐FolT2 (setting [4]) was 328 ± 6 µM; at ECF‐FolT2 (setting [5]), 300 ± 30 µM. Besides, on ECF‐FolT2 (setting [6]), the kon is 570 ± 10 M⁻¹ s⁻¹. Also, the koff at ECF‐FolT2 (setting [7]) came to 0.187 ± 0.003 s⁻¹.
With `O=C(O)c1cccc(NCc2ccc(-c3ccccc3Cl)o2)c1` [Compound 6], the “Percent (%) cell viability at 100 μM, HepG2 cells” value in the data set with HepG2 cells is reported as “non‐toxic”. For the same molecule, the viability at 48 h, 100 µM in data set [1] (A549 cells) was determined as 103 ± 7%. For the same molecule, the IC50 in the data set with Lactobacillus casei came to 285 ± 293 µM. Moreover, the Kd is 231 ± 5 µM on ECF‐FolT2 (setting [4]) and 230 ± 10 µM on ECF‐FolT2 (setting [5]). The kon on ECF‐FolT2 (setting [6]) was 100000 M⁻¹ s⁻¹. Moreover, the koff at ECF‐FolT2 (setting [7]) came out at 22 ± 3 s⁻¹.
